Test results as given in patent US20070135457A1, “Pyrido[2,3-d]pyrimidine-2,4-diamines as pde2 inhibitors” (Pfizer Inc., priority 2003, published 2007).
Where two headings read alike, the source gives them in different places.

What was measured:
[1] = target: T1, PDE 2 enzyme isolated from human platelets (Homo sapiens, UniProt O00408); assay: PDE 2 enzyme scintillation proximity assay (SPA); format: biochemical
T1 construct: PDE 2 enzyme was isolated from human platelets; from tissue; host or cells: human platelets (pooled blood from multiple donors); HiTrap Q anion-exchange fraction eluting at about 325 mM NaCl
Method: PDE 2 enzyme was isolated from human platelets with approximately 1.4 L of blood from multiple donors used to make the platelet pellets. Platelets were resuspended in approximately 75 mL of lysis buffer [20 mM Tris pH 7.2, 5 mM MgCl2, 250 mM Sucrose, 1 mM DTT, 1 μL/2 mL Sigma Protease inhibitor #8340; Sigma-Aldrich; St. Louis, Mo.] and lysed by sonication at 4° C., with 3 rounds of 1 min bursts then spun at 4° C. overnight at 100,000×g. Cleared lysates were loaded to AKTA Explorer FPLC (Amersham Biosciences; Piscataway, N.J.) in a series of three chromatographic separations, with an average load volume of 25 mL. A 5 mL HiTrap Q anion exchange column (Amersham Biosciences) was used. […] Two major cGMP activity fractions (PDE 5 and PDE 2) were isolated and pooled separately. The PDE 2-pooled fraction total was approximately 40 mL which was dispensed in cryovials of 200 μl/vial and placed in storage at −80° C.
The inhibitory activity of the compounds of formula (I) on recombinant or isolated PDE 2, and other PDE's, was determined using the […] scintillation proximity assay (SPA) kits from Amersham International (Little Chalfont, England). The SPA assays were performed using 96 well plates. The PDE SPA yttrium silicate beads (Amersham Biosciences) bind preferentially to the linear nucleotide, GMP, compared to the cyclic nucleotide, cGMP. ^3H-cGMP was added to the reaction and when the product, ^3H-GMP, was in […] to the beads, the scintillant within the bead was excited, which was detected using a Packard scintillation counter (Perkin-Elmer Life Sciences; Boston, Mass.). The enzyme concentration used was in the linear range and the Km of the enzyme was determined (15 uM). The final substrate concentration was <1/3 of Km (1 μM) so that IC50 values would approximate the Ki values. The assay was validated using literature compounds as controls before testing compounds. Then, PDE catalytic activity measurements obtained in the presence of the test compound, and those obtained in the absence of the test compound, were compared and the lC50 value is determined. […]

[2] = SPA, 1 μM substrate, read-out: PDE 2 Inhibition

T1 sequence (O00408 whole entry): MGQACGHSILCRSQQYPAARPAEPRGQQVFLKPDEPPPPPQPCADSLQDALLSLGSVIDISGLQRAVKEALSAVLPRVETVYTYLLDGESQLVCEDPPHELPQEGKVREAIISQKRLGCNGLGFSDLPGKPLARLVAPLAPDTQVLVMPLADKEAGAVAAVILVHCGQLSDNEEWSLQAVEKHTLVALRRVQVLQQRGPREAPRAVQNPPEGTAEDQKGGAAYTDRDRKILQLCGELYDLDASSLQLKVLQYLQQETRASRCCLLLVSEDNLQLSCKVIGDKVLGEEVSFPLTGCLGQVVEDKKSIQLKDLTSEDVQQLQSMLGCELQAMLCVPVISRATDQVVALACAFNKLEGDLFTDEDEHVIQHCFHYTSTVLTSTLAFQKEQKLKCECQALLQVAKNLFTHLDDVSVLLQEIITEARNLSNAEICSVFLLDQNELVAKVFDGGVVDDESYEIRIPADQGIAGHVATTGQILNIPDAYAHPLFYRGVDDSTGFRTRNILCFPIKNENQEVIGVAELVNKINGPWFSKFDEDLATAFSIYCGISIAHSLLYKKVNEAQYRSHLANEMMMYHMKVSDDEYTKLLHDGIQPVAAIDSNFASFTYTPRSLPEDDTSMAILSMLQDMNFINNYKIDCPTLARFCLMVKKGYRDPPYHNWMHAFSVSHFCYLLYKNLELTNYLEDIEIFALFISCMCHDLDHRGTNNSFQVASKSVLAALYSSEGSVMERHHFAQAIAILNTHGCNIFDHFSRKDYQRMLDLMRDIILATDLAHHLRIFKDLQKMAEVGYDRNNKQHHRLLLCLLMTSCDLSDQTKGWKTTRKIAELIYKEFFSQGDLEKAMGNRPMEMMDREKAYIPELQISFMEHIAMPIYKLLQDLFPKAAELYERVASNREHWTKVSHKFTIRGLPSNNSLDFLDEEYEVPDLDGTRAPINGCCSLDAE

Structure (SMILES)	melting point	IC50 [1, 2]	IC50 ([1]; PDE 2 isolated from human platelets, read-out: IC50)
COc1ccc(CNc2nc(NCCCc3ccc(C(C)(C)O)cc3)nc3ncccc23)cc1OC [Example 21, 2-(4-{3-[4-(3,4-Dimethoxy-benzylamino)-pyrido[2,3-d]pyrimidin-2-ylamino]-propyl}-phenyl)-propan-2-ol]	198 to 199 °C	250 to 1000 nM	
COc1ccc(CNc2nc(NCCOc3ccccc3)nc3ncccc23)cc1OC [Example 19, N^4-(3,4-Dimethoxy-benzyl)-N^2-(2-phenoxy-ethyl)-pyrido[2,3-d]pyrimidine-2,4-diamine]	227 to 228 °C	50 to 250 nM	
COc1ccc(CNc2nc(NCCc3ccc(F)cc3)nc3ncccc23)cc1OC [Example 16, N^4-(3,4-Dimethoxy-benzyl)-N^2-[2-(4-fluoro-phenyl)-ethyl]-pyrido[2,3-d]pyrimidine-2,4-diamine]	225 to 226 °C	< 50 nM	
COc1ccc(CNc2nc(NCCc3ccccc3)nc3ncccc23)cc1OC [Example 17, N^4-(3,4-Dimethoxy-benzyl)-N^2-phenethyl-pyrido[2,3-d]pyrimidine-2,4-diamine]	217 to 218 °C	< 50 nM	
COc1ccc(CNc2nc(NCc3ccc(C(O)C(F)(F)F)cc3)nc3ncccc23)cc1OC (stereo not drawn) [Example 23, 1-(4-{[4-(3,4-Dimethoxy-benzylamino)-pyrido[2,3-d]pyrimidin-2-ylamino]-methyl}-phenyl)-2,2,2-trifluoro-ethanol]	121 to 122 °C	250 to 1000 nM	
COc1ccc(CNc2nc(NCCCc3cccc(C(C)=O)c3)nc3ncccc23)cc1OC [Example 37, 1-(3-{3-[4-(3,4-Dimethoxy-benzylamino)-pyrido[2,3-d]pyrimidin-2-ylamino]-propyl}-phenyl)-ethanone]	152 to 155 °C	250 to 1000 nM	
COc1cc(CCNc2nc(NCc3cc(OC)cc(OC)c3)c3cccnc3n2)cc(OC)c1 [Example 13, N^4-(3,5-Dimethoxy-benzyl)-N^2-[2-(3,5-dimethoxy-phenyl)-ethyl]-pyrido[2,3-d]pyrimidine-2,4-diamine]	95 to 100 °C	50 to 250 nM	
COc1cc(CNc2nc(NCCCc3ccc(C(C)(C)O)cc3)nc3ncccc23)cc(OC)c1 [Example 22, 2-(4-{3-[4-(3,5-Dimethoxy-benzylamino)-pyrido[2,3-d]pyrimidin-2-ylamino]-propyl}-phenyl)-propan-2-ol]	70 to 75 °C	50 to 250 nM	
COc1ccc(CNc2nc(NCCCc3ccc(C#N)cc3)nc3ncccc23)cc1OC [Example 30, 4-{3-[4-(3,4-Dimethoxy-benzylamino)-pyrido[2,3-d]pyrimidin-2-ylamino]-propyl}-benzonitrile]	220 to 222 °C	250 to 1000 nM	
COc1cc(CNc2nc(NCc3ccc(C(C)(C)O)cc3)nc3ncccc23)cc(OC)c1 [Example 11, 2-(4-{[4-(3,5-Dimethoxy-benzylamino)-pyrido[2,3-d]pyrmidin-2-ylamino]-methyl}-phenyl)-propan-2-ol]	105 to 109 °C	250 to 1000 nM	
COc1ccc(CNc2nc(NCCCc3ccc(C(=O)C(F)(F)F)cc3)nc3ncccc23)cc1OC [Example 36, 1-(4-{3-[4-(3,4-Dimethoxy-benzylamino)-pyrido[2,3-d]pyrimidin-2-ylamino]-propyl}-phenyl)-2,2,2-trifluoro-ethanone]	198 to 200 °C	250 to 1000 nM	
COc1ccc(CNc2nc(NCCCc3cccc(C4(C)OCCO4)c3)nc3ncccc23)cc1OC [Example 28, N^4-(3,4-Dimethoxy-benzyl)-N^2-{3-[3-(2-methyl-[1,3]-dioxolan-2-yl)-phenyl]-propyl}-pyrido[2,3-d]pyrimidine-2,4-diamine]		250 to 1000 nM	
COc1ccc(CNc2nc(NCCc3ccccc3F)nc3ncccc23)cc1OC [Example 15, N^4-(3,4-Dimethoxy-benzyl)-N^2-[2-(2-fluoro-phenyl)-ethyl]-pyrido[2,3-d]pyrimidine-2,4-diamine]	220 to 222 °C	50 to 250 nM	
COc1cc(CNc2nc(NCc3cc(OC)cc(OC)c3)c3cccnc3n2)cc(OC)c1 [Example 5, N^2-N^4-Bis-(3,5-dimethoxy-benzyl)-pyrido[2,3-d]pyrimidine-2,4-diamine]	159 to 160 °C	< 50 nM	
CCOc1cc(CNc2nc(NCCCc3ccccc3)nc3ncccc23)ccc1OC [Example 34, N^4-(3-Ethoxy-4-methoxy-benzyl)-N^2-(3-phenyl-propyl)-pyrido[2,3-d]pyrimidine-2,4-diamine]	181 to 182 °C	250 to 1000 nM	
COc1cc(CNc2nc(NCCOc3ccccc3)nc3ncccc23)cc(OC)c1 [Example 33, N^4-(3,5-Dimethoxy-benzyl)-N^2-(3-phenoxy-ethyl)-pyrido[2,3-d]pyrimidine-2,4-diamine]	165 to 167 °C	50 to 250 nM	
COc1ccc(CNc2nc(NCCc3cccc(F)c3)nc3ncccc23)cc1OC [Example 14, N^4-(3,4-Dimethoxy-benzyl)-N^2-[2-(3-fluoro-phenyl)-ethyl]-pyrido[2,3-d]pyrimidine-2,4-diamine]	227 to 228 °C	50 to 250 nM	
COc1cc(CNc2nc(NCCc3cccnc3)nc3ncccc23)cc(OC)c1 [Example 2, N^4-(3,5-Dimethoxy-benzyl)-N^2-(2-pyridin-3-yl-ethyl)-pyrido[2,3-d]pyrimidine-2,4-diamine]	185 to 186 °C	50 to 250 nM	
CCOc1cc(CNc2nc(NCCCc3ccc(C(C)(C)O)cc3)nc3ncccc23)ccc1OC [Example 35, 2-(4-{3-[4-(3-Ethoxy-4-methoxy-benzylamino)-pyrido[2,3-d]pyrimidin-2-ylamino]-propyl}-phenyl)-propan-2-ol]	150 to 152 °C	250 to 1000 nM	
COc1ccc(CNc2nc(NCCCCc3ccccc3)nc3ncccc23)cc1OC [Example 18, N^4-(3,4-Dimethoxy-benzyl)-N^2-(4-phenyl-butyl)-pyrido[2,3-d]pyrimidine-2,4-diamine]	194 to 195 °C	50 to 250 nM	
COc1cc(CNc2nc(NCCc3ccc(Cl)cc3)nc3ncccc23)cc(OC)c1 [Example 8, N^2-[2-(4-Chloro-phenyl)-ethyl]-N^4-(3,5-dimethoxy-benzyl)-pyrido[2,3-d]pyrimidine-2,4-diamine]	85 to 90 °C	250 to 1000 nM	
COc1ccc(CNc2nc(NCCCc3ccc4nonc4c3)nc3ncccc23)cc1OC [Example 26, N^2-3-(Benzo[1,2,5]oxadiazol-5-yl-propyl)-N^4-(3,4-dimethoxy-benzyl)-pyrido[2,3-d]pyrrimidine-2,4-diamine]	191 to 193 °C	250 to 1000 nM	
COc1cc(CNc2nc(NCCc3ccccc3)nc3ncccc23)cc(OC)c1 [Example 12, N^4-(3,5-Dimethoxy-benzyl)-N^2-2-phenethyl-pyrido[2,3-d]pyrimidine-2,4-diamine]	112 to 114 °C	50 to 250 nM	
COc1cc(CNc2nc(NCCCc3ccncc3)nc3ncccc23)cc(OC)c1 [Example 31, N^4-(3,5-Dimethoxy-benzyl)-N^2-(3-pyridin-4-yl-propyl)-pyrido[2,3d]pyrimidine-2,4-diamine]		250 to 1000 nM	
COc1cc(CNc2nc(NCc3ccccc3)nc3ncccc23)cc(OC)c1 [Example 9, N^2-Benzyl-N^4-(3,5-dimethoxy-benzyl)-pyrido[2,3-d]pyrimidine-2,4-diamine]	84 to 85 °C	250 to 1000 nM	
COc1ccc(CNc2nc(NCCCc3ccc(C(O)C(F)(F)F)cc3)nc3ncccc23)cc1OC (stereo not drawn) [Example 25, 1-(4-{3-[4-(3,4-Dimethoxy-benzylamino)-pyrido[2,3-d]pyrimidin-2-ylamino]-propyl}-phenyl)-2,2,2-trifluoro-ethanol]	222 to 224 °C	50 to 250 nM	
COc1ccc(CCNc2nc(NCc3cc(OC)cc(OC)c3)c3cccnc3n2)cc1 [Example 6, N^4-(3,5-Dimethoxy-benzyl)-N^2-[2-(4-methoxy-phenyl)-ethyl]-pyrido[2,3-d]pyrimidine-2,4-diamine]	88 to 89 °C	250 to 1000 nM	
COc1cc(CNc2nc(NCCCc3ccccc3)nc3ncccc23)cc(OC)c1 [Example 7, N^4-(3,5-Dimethoxy-benzyl)-N^2-(3-phenyl-propyl)-pyrido[2,3-d]pyrimidine-2,4-diamine]		50 to 250 nM	
CCCCCCC(C(C)O)n1cnc2c(N)ncnc21 (stereo not drawn) [EHNA, erythro-9-(2-hydroxy-3-nonyl)adenine, reference compound]			1700 nM
